Tests used:
CaCO2 (colon cancer) = assay: Apoptosis analysis (Annexin V FITC, flow cytometry); type: cell-based, human; details: about 3 days
Method: (§1) Apoptosis was analyzed by using an Annexin V FITC Apoptosis Detection Kit (Biosource, Camarillo, Calif.), according to the manufacturer's protocol. After treatment with different small molecule compounds at various concentrations for about 3 days, cells were harvested by trypsinization, stained and immediately analyzed by flow cytometry (FACScan; Decton Dickinson, Franklin Lake, N.J.). Early apoptotic cells with exposed phosphatidylserine but intact cell membranes will bind to Annexin V-FITC, but not propidium iodide (PI). Cells in necrotic or late apoptotic stages will be labeled with both Annexin V-FITC and PI. “% apoptotic cells” or “% apoptosis” refers to the combined early and late apoptotic cells.

H460 (NSCLC) = assay: as above; type: cell-based, human; details: 3 days
Method: as §1

[1] = system: Primary cultured NSCLC cells; assay: as above; type: cell-based, human; details: 3 days
Method: (§2) Fresh cancer tissue and adjacent normal tissue from patients undergoing curative primary resection of their tumors were collected at the time of surgery (IRB approval H8714-15319-040), and immediately snap-frozen in liquid nitrogen. These tissue samples were kept at −170° C. in a liquid nitrogen freezer until further use. Primary tissue cultures were prepared as follows: Fresh cancer tissue was obtained with consent from patients undergoing resection, cut into small pieces (1-2 mm in diameter), and then digested with Collagenase A (Roche Applied Science, Indianapolis, Ind.) at room temperature for 2 hours according to manufacture's protocol. Single cells from the digestion were spun down and the cell pellets were washed twice using RPMI 1640 supplemented with 10% fetal bovine serum, penicillin (100 IU/ml) and streptomycin (100 μg/ml). Then, the cells were resuspended in the same medium and cultured in 6-well plates at 37° C. in a humid incubator with 5% CO2 until they were ready for further treatments.
as §1
Flow cytometry was also used to examine apoptosis induced by molecule compounds of the invention. in primary cultured NSCLC cells freshly made from tissue samples. […] For example, app.

LOX (melanoma) = assay: as above; type: cell-based, human; details: 3 days
Method: as §1
The cell killing of LOX cells by treatment with small molecule compounds FN1-5 and FN1-8 was analyzed in greater detail using various concentrations of these two compounds and flow cytometry. […] (Tables 2 and 3).

[2] = system: Primary cultured mesothelioma; assay: as above; type: cell-based, human; details: 3 days
Method: as §2, §1
Next, flow cytometry was used to examine apoptosis after the treatment of small molecule compound FN1-5 at different doses (10 μM, 30 μM and 50 μM) for 3 days in primary cultured human mesothelioma cells freshly made from tissue samples.

melanoma cell line LOX = assay: Cell survival assay (crystal violet); type: cell-based, human; details: for cell killing effect: 3 days
Method: (§3) Typically, the small molecule compounds of the present invention were dissolved in DMSO at a concentration of 30 mM. The small molecule compounds were then tested under cell culture conditions at different concentrations ranging from 0, 10, 30, 50, to 100 uM. To determine cell survival after treatment, the cells were incubated with the small molecule compounds in 6-well plates for about 3 days. After removal of the cell culture medium, 1-ml of 0.5% crystal violet solution (prepared in 20% ethanol and 20% methanol) was added to stain the cells for 5 min. Then the crystal violet solution was rinsed clean with tap water. Cell survival was estimated based on the density of crystal stained plates.
The effect of small molecule compounds FN1-5, FN1-8, FN1-7, FN1-9U, and FN1-9S was tested using a cytotoxicity assay and the melanoma cell line LOX. LOX cells were plated in 6-well plates and incubated with 100 μM of each compound (stocks were dissolved in DMSO at 30 mM) for 3 days, as described herein. […] Live cells were stained by 0.5% crystal violet.
Cell killing was also tested using human melanoma cell line LOX and different doses of the small molecule compounds FN1-5 and FN1-8. LOX cells were plated in 6-well plates and incubated with 10, 30, and 50 μM of each compound for 3 days, as described herein.

[3] = system: human ovarian cancer cell line AZ23247; assay: Cell survival assay (crystal violet); type: cell-based; details: AZ23247, 30 μM and 50 μM
Method: as §3
The cell-based cytotoxicity assay described herein was used to determine the effect of small molecule compounds FN1-5 and FN1-8 in the human ovarian cancer cell line AZ23247. Viability of AZ23247 cells was analyzed after treatment with 10, 30 and 50 μM FN1-5 or FN1-8.

[4] = system: Hedgehog (Hh) signaling pathway (Ptch1, Gli1) in NSCLC cell lines H460 and A549; assay: Semi-quantitative RT-PCR of Hedgehog pathway genes; type: cell-based, human; details: for expression of Hh pathway key components and direct target genes (Ptch1, Gli1): 30 μM, 2 days, data not shown
Method: Total RNA from cell lines or tissue samples was isolated using Qiagen RNeasy Mini Kit (Valencia, Calif.). RT-PCR was performed in GeneAmp PCR system 2700 (Applied Biosystems, Foster City, Calif.) using One-step RT-PCR Kit from Invitrogen Life Technologies (Carlsbad, Calif.). Primers for RT-PCR were obtained from Operon Technologies Inc. (Alameda, Calif.). Primer sequences for amplifying different genes in Hedgehog and Wnt signaling pathways are listed in the table below (Table 1; F, forward primer; R, reverse primer). The expected size of the PCR product is indicated for each primer pair. GAPDH was used as internal control.
To further examine the mechanism of action of the small molecule compounds of the present invention, the effect of compounds FN1-5 and FN1-8 on the Hedgehog (Hh) signaling pathway was examined in NSCLC cell lines H460 and A549. H460 and A549 cells were incubated with 30 μM of each compound (FN1-5 or FN1-8) for 2 days before isolation of total RNA that was used for semi-quantitative RT-PCR analysis. […] GAPDH served as a control.

[5] = system: Tcf-mediated gene transcription (canonical Wnt signaling) in colon cancer cell line HCT116; assay: TOPFLASH (TOP/FOP) assay; type: cell-based, human; details: HCT116, 30 μM; for TOP/FOP activity: 18-24 hours
Method: Cells were plated in 12-well plates. The TOPFLASH or FOPFLASH reporter plasmid (Upstate; Charlottesville, Va.) was transfected transiently into cells as described above. Tcf-mediated gene transcription was determined by the ratio of pTOPFLASH:pFOPFLASH luciferase activity, each was normalized to luciferase activities of the pRL-TK reporter (co-transfected internal control). All experiments were performed in triplicate, and repeated three times.
As another specificity test of the small molecule compounds of the invention, it was tested whether small molecule compounds FN1-5, FN1-7, FN1-8, FN1-9U, FN1-9S, FN2-1, and FN3-5 could regulate the transcription activity of the canonical Wnt signaling by using TOP/FOP assay.

Row | Structure (SMILES) | % of apoptotic cells (CaCO2 (colon cancer); CaCO2, 30 μM) [%] | % of apoptotic cells (CaCO2 (colon cancer); CaCO2, 50 μM) [%] | % of apoptotic cells (H460 (NSCLC); H460, 30 μM) [%] | % of apoptotic cells (H460 (NSCLC); H460, 50 μM) [%] | % of apoptotic cells ([1]; 30 μM) [%] | % of apoptotic cells ([1]; 50 μM) [%] | % of apoptotic cells (LOX (melanoma); 10 μM) [%] | % of apoptotic cells (LOX (melanoma); 30 μM) [%] | % of apoptotic cells (LOX (melanoma); 50 μM) [%] | % of apoptotic cells ([2]; 10 μM) [%] | % of apoptotic cells ([2]; 30 μM) [%] | % of apoptotic cells ([2]; 50 μM) [%] | cell killing effect (melanoma cell line LOX; 50 μM) | cell killing effect (melanoma cell line LOX; 100 μM) | cell killing [3] | expression of Hh pathway key components and direct target genes (Ptch1, Gli1) [4] | TOP/FOP activity [5] | also measured
1 | O=C(NCCCCCO)C1C(c2ccccc2)=NN(c2ccccc2)C1c1ccccc1 (stereo not drawn) [FN1-5, N-(5-Hydroxypentyl)-1,3,5-triphenyl-4,5-dihydro-pyrazole-4-carboxyamide] | 19.8 | 30.3 | 11.9 | 15.7 | 11.2 | 19.8 | 14.0 | 16.6 | 58.1 | 12.3 | 15.8 | 18.3 | Dramatic cell killing effect | dramatic cell killing effect | dramatic cell killing | downregulated | down-regulate TOP/FOP activity dramatically | % of apoptotic cells (CaCO2 (colon cancer); CaCO2, 10 μM): 8.2%
2 | O=C(NCCc1ccc(O)cc1)C1C(c2ccccc2)=NN(c2ccccc2)C1c1ccccc1 (stereo not drawn) [FN1-8, N-(2-(4-Hydroxyphenyl)ethyl)-1,3,5-triphenyl-4,5-dihydro-pyrazole-4-carboxyamide] | 19.9 | 39.4 | 12.1 | 75.2 | 13.1 | 58.0 | 16.7 | 19.0 | 78.9 | 13.2 | 14.7 | 33.6 | Dramatic cell killing effect | dramatic cell killing effect | dramatic cell killing | downregulated | down-regulate TOP/FOP activity dramatically | % of apoptotic cells ([1]; 10 μM): 9.8%; cell killing potency compared with FN1-5 (melanoma cell line LOX; compared at 30 μM): more potent than FN1-5; inhibitory effect on Hh and Wnt pathways compared with FN1-5 [4]: more inhibitory effect; reduction of TOP/FOP activity [5]: about 36%

Reference: patent publication US7714014B2, “Targeting GLI proteins in human cancer by small molecules” (The Regents of the University of California, priority 2005, dated 2010)
